# Test results as given in US10053476B2, “Phosphohistidine and phosphotyrosine analogues” (UNIVERSITY OF SHEFFIELD, priority 2013, dated 2018).
# Experiments:
# [1] = test system: polyclonal sera raised against 4-phosphopyrazol-1-yl alanine; experiment: Dot blot of BSA-glutaraldehyde conjugated analogues with affinity depleted rabbit and rat sera; type: binding; settings: BSA-glutaraldehyde conjugated analogue; rabbit and rat sera affinity depleted with histidine-KLH
# Description: Solutions of the BSA-amino acid conjugates of histidine, tele-phosphohistidine, and the analogues, were first diluted 1000 fold. These solutions as well as the commercially available solutions of BSA conjugated to phosphoserine, phosphothreonine, and phosphotyrosine were spotted (2 μL) onto a PVDF membrane. Once the spots were dry, the membrane was rinsed with methanol before being blocked in 5% non-fat dry milk in 10 mM Tris-HCl pH 8.0, 17 mM NaCl (TBS), Tween (0.05%) (5% NFDM/TBST) for 1 hour and then incubated with the rat sera raised against the analogue of interest at 1/1000 dilution in 5% NFDM/TBST overnight at 4° C. The membrane was then washed using TBS-Tween (0.05%) 3 times for 15 minutes, before being incubated with a 1/2000 fold dilution of goat anti-rat IgG-HRP conjugate in 5% NFDM/TBST for 60 minutes at room temperature. Membranes were then washed 3 times for 15 minutes using TBS-Tween (0.05%) and then treated with SuperSignal West Dura Chemiluminescent Substrate for 3 minutes. […]
# In addition, further antibodies against 4-phosphopyrazol-1-yl alanine were raised as described in sections 2.1.1 to 2.1.4 above, and dot blot analysis conducted as described in section 2.5. […] The data establishes that 4-phosphopyrazol-1-yl alanine amide and 4-phosphothiazol-1-yl alanine amide are detected by the polyclonal sera raised against 4-phosphopyrazol-1-yl alanine.
smiles,measurement,setting,value
N[C@@H](Cc1cc(P(=O)(O)O)cs1)C(=O)O [Compound 17],melting point,,260 °C
"N[C@@H](Cc1ncc(P(=O)(O)O)s1)C(=O)O [Compound 20, (S)-2-Amino-3-(5-phosphoryl-1,3-thiazol-2-yl)propanoic acid]",melting point,,196 to 199 °C (dec.)
N[C@@H](Cn1cc(P(=O)(O)O)cn1)C(=O)O [Compound 12],melting point,,200 °C
N[C@@H](Cc1ccc(P(=O)(O)O)cn1)C(=O)O [Compound 6],melting point,,270 °C
C[C@H](N[SH]1C=NC(P(=O)(O)O)=C1)C(N)=O (some centres unmarked) [4-phosphothiazol-1-yl alanine amide],detection by polyclonal sera raised against 4-phosphopyrazol-1-yl alanine (dot blot),[1],detected
